Results reported in US8022086B2, “Therapeutic agent for glomerular disease” (Kowa Co., Ltd., priority 2004, dated 2011).

Test system: rat model of glomerular basement membrane (GBM) nephritis
Test: Pharmacological test employing rat model of glomerular basement membrane (GBM) nephritis: urinary total protein excretion
Format: in vivo, Wistar male rats
Details: anti-GBM antibody-induced nephritis rats, repeated oral administration for two weeks; for 18-hour urinary total protein excretion: pitavastatin calcium 30 mg/kg, candesartan cilexetil 3 mg/kg, control group 316, N=7; for 18-hour urinary total protein excretion compared with control group (significance): versus no drug administration group
Description: Wistar male rats (six weeks old, purchased from Japan Laboratory Animals, Inc.) were quarantined and acclimatized for four days, and employed for the test. Firstly, a rat GBM rabbit IgG antibody was prepared, and then an antibody solution was adjusted with saline upon use to be 31 mg IgG antibody/mL saline. Thereafter, each of the rats was fixated under unanesthetized conditions, and the antibody solution was intravenously administered (1 mL/kg) through the tail vein, whereby progressive renal disorder was induced. The resultant rats were divided into four groups (N=7 for each), and immediately thereafter, the below-described test was carried out. […] In the drug administration groups, the respective drugs were repeatedly orally administered for two weeks. In each of the groups, after completion of two-week drug administration, urine was collected from each rat for 18 hours in a metabolic cage (Product of […] Co., Ltd.), and urinary total protein excretion was measured.

Question: How did the “18-hour urinary total protein excretion” value turn out when `CCOc1nc2cccc(C(=O)OC(C)OC(=O)OC3CCCCC3)c2n1Cc1ccc(-c2ccccc2-c2nnn[nH]2)cc1` (stereo not shown) [candesartan cilexetil, 1-(cyclohexyloxycarbonyloxy)ethyl 2-ethoxy-1-[[2′-(1H-tetrazol-5-yl)biphenyl-4-yl]methyl]-1H-benzimidazole-7-carboxylate] was run?
Answer: 92 mg/18 h/kg

Question: And the “18-hour urinary total protein excretion compared with control group (significance)” value?
Answer: lower, but not significantly lower

Question: With `O=C(O)C[C@H](O)C[C@H](O)/C=C/c1c(C2CC2)nc2ccccc2c1-c1ccc(F)cc1` [pitavastatin calcium, (3R, 5S, 6B)-7-[2-cyclopropyl-4-(4-fluorophenyl)-3-quinolyl]-3,5-dihydroxy-6-heptenoic acid] as the compound, how does the “18-hour urinary total protein excretion” value read?
Answer: 138 mg/18 h/kg

Question: And the “18-hour urinary total protein excretion compared with control group (significance)” value?
Answer: lower, but not significantly lower
